Measurements taken from PMC12024264, “Frog Skin Peptides Hylin-a1, AR-23, and RV-23: Promising Tools Against Carbapenem-Resistant Escherichia coli and Klebsiella pneumoniae Infections” (Antibiotics, 2025).
In brackets after ≈: the same amount, converted by molar mass. Where two headings read alike, the source gives them in different places.

Assays:
K. pneumoniae 1746 = assay: Antibiotic resistance profile of clinical isolate (Table S1); assay type: cell-based, Klebsiella pneumoniae
Protocol: (§1) Each strain was grown in Mueller Hinton Broth (MH Broth), and 5 × 10^5 CFU/mL was used to evaluate antibacterial activity. Clinical carbapenem-resistant K. pneumoniae and E. coli isolates were collected at the AOU of Virology and Microbiology of the University of Campania “Luigi Vanvitelli”. […]
(§2) Table S1. Antibiotic resistance profile of K. pneumoniae and E. coli clinical isolates . MIC: Minimum Inhibitory
(§3) Concentration was expressed in µg/mL; S: Sensible; I: Intermediate; R: Resistant.
(§4) Antibiotic Resistance Profile of the Clinical Isolated Bacteria
(§5) Antibiotics MIC (µg/mL) Interpretation […]

K. pneumoniae 1745 = assay: as above; assay type: cell-based, Klebsiella pneumoniae; settings: Table S1, K. pneumoniae 1745
Protocol: as §1, §2, §3, §4, §5

K. pneumoniae 1711 = assay: as above; assay type: cell-based, Klebsiella pneumoniae; settings: Table S1, K. pneumoniae 1711
Protocol: as §1, §2, §3, §4, §5

K. pneumoniae = assay: Checkerboard assay with meropenem
Text: (§6) The synergistic effect of the selected peptides and meropenem was examined using a checkerboard assay. This method investigates the interaction between various antimicrobial agents and their combined effectiveness against bacteria. […] It determines whether the combined agents act synergistically, additively, or antagonistically to identify combinations that can reduce drug resistance.
(§7) The rows contain two-fold dilutions of meropenem, while we reported a two-fold serial dilution of AMPs in the columns.
(§8) The checkerboard test was carried out to assess the antibacterial activity of peptides in combination with antibiotics. The test was performed by preparing the bacterial inoculum in the same manner as the tests described above. Non-toxic concentrations of all peptides and serial dilutions of meropenem were inoculated in a 96-well plate either alone or in combination. After 20 h, the plate was read at OD600, and the Fractional Inhibitory Concentration (FICI) was calculated according to the following formula:FICI = FIC (A) + FIC (B)
(§9) FIC (A) = MIC peptide in combination/MIC peptide alone
(§10) FIC (B) = MIC meropenem in combination/MIC Meropenem alone

E. coli = assay: Checkerboard assay with meropenem
Text: as §6, §7, §8, §9, §10

E. coli 1376 = assay: Antibiotic resistance profile of clinical isolate (Table S1); assay type: cell-based, Escherichia coli
Protocol: as §1, §2, §3, §4, §5

E. coli 1441 = assay: as above; assay type: cell-based, Escherichia coli
Protocol: as §1, §2, §3, §4, §5

E. coli 716 = assay: as above; assay type: cell-based, Escherichia coli
Protocol: as §1, §2, §3, §4, §5

E. coli 2267 = assay: as above; assay type: cell-based, Escherichia coli; settings: Table S1, E. coli 2267
Protocol: as §1, §2, §3, §4, §5

E. coli 3140 = assay: as above; assay type: cell-based, Escherichia coli
Protocol: as §1, §2, §3, §4, §5

K. pneumoniae 311 = assay: as above; assay type: cell-based, Klebsiella pneumoniae
Protocol: as §1, §2, §3, §4, §5

[1] = Klebsiella pneumoniae, read-out: MIC
[2] = Escherichia coli, read-out: MIC

Compound | MIC (K. pneumoniae 1746; Klebsiella pneumoniae, 1746) [µg/mL] | Interpretation (K. pneumoniae 1746; Table S1, K. pneumoniae 1746) | MIC (K. pneumoniae 1745; [1]) [µg/mL] | Interpretation (K. pneumoniae 1745) | MIC (K. pneumoniae 1711; [1]) [µg/mL] | Interpretation (K. pneumoniae 1711) | MIC (E. coli 1376; Escherichia coli, 1376) [µg/mL] | Interpretation (E. coli 1376; Table S1, E. coli 1376) | MIC (E. coli 1441; Escherichia coli, 1441) [µg/mL] | Interpretation (E. coli 1441; Table S1, E. coli 1441) | MIC (E. coli 716; Escherichia coli, 716) [µg/mL] | Interpretation (E. coli 716; Table S1, E. coli 716) | MIC (E. coli 2267; [2]) [µg/mL] | Interpretation (E. coli 2267) | MIC (E. coli 3140; Escherichia coli, 3140) [µg/mL] | Interpretation (E. coli 3140; Table S1, E. coli 3140) | Interpretation (K. pneumoniae 311; Table S1, K. pneumoniae 311) | MIC (K. pneumoniae 311; Table S1, K. pneumoniae 311) | MIC (K. pneumoniae 1746; Table S1, K. pneumoniae 1746) | MIC (K. pneumoniae 1745) | other results
C[C@@H](O)[C@H]1C(=O)N2C(C(=O)O)=C(S[C@@H]3CN[C@H](C(=O)N(C)C)C3)[C@H](C)[C@H]12 [Meropenem] | 1 (≈ 2.61 µM) | S | > 16 | R | > 16 | R | > 16 | R | 1 (≈ 2.61 µM) | S | > 16 | R | > 16 | R | 0.5 (≈ 1.3 µM) | S | – | – | – | – | MIC (K. pneumoniae; Klebsiella pneumoniae, read-out: MIC of meropenem): 5 µg/mL; MIC of antibiotic (meropenem) in combination (K. pneumoniae; combined with AR23 at 3.125 μM): 0.625 µg/mL; MIC of antibiotic (meropenem) in combination (K. pneumoniae; combined with RV-23 at 3.125 μM): 0.625 µg/mL; MIC (E. coli; Escherichia coli, read-out: MIC of meropenem): 5 µg/mL; MIC of antibiotic (meropenem) in combination (E. coli; combined with AR23 at 6.25 μM): 1.25 µg/mL; MIC of antibiotic (meropenem) in combination (E. coli; combined with Hylin-a1 at 3.125 μM): 2.5 µg/mL; MIC of antibiotic (meropenem) in combination (E. coli; combined with RV-23 at 6.25 μM): 2.5 µg/mL
Amoxicillin/clavulanate | – | R | – | R | – | R | – | R | – | R | – | R | – | R | – | R | R | > 32/2 | > 32/2 | > 32/2 | MIC (K. pneumoniae 1711): > 32/2; MIC (E. coli 1376; Table S1, E. coli 1376): > 32/2; MIC (E. coli 1441; Table S1, E. coli 1441): > 32/2
NC[C@H]1O[C@H](O[C@H]2[C@H](O)[C@@H](O[C@H]3O[C@H](CO)[C@@H](O)[C@H](N)[C@H]3O)[C@H](N)C[C@@H]2N)[C@H](N)C[C@@H]1O [Tobramycin] | > 4 | R | > 4 | R | > 4 | R | > 4 | R | ≤ 1 | S | ≤ 1 | S | ≤ 1 | S | ≤ 1 | S | R | – | – | – | MIC (K. pneumoniae 311; Klebsiella pneumoniae, 311): > 4 µg/mL
CC(C)(O/N=C(\C(=O)N[C@@H]1C(=O)N2C(C(=O)[O-])=C(C[n+]3ccccc3)CS[C@H]12)c1csc(N)n1)C(=O)O [Ceftazidime] | > 16 | R | > 16 | R | > 16 | R | > 16 | R | > 16 | R | > 16 | R | > 16 | R | 16 (≈ 29.3 µM) | R | R | – | – | – | MIC (K. pneumoniae 311; Klebsiella pneumoniae, 311): > 16 µg/mL
Meropenem-vaborbactam | – | S | – | R | – | R | – | R | – | S | – | R | – | R | – | S | S | 4/ 8 | ≤ 2/8 | > 8/8 | MIC (K. pneumoniae 1711): > 8/8; MIC (E. coli 1376; Table S1, E. coli 1376): > 8/8; MIC (E. coli 1441; Table S1, E. coli 1441): ≤ 2/8; MIC (E. coli 716; Table S1, E. coli 716): > 32/2; MIC (E. coli 3140; Table S1, E. coli 3140): ≤ 2/8
Ceftazidime-avibactam | – | R | – | R | – | R | – | S | – | S | – | S | – | S | – | S | S | 1/ 4 | > 8/4 | > 8/4 | MIC (K. pneumoniae 1711): > 8/4; MIC (E. coli 716; Table S1, E. coli 716): 8/4; MIC (E. coli 2267): 8/4
C[C@@H](O)[C@H]1C(=O)N2C(C(=O)O)=C(SCCN=CN)C[C@H]12 [Imipenem] | 4 (≈ 13.4 µM) | I | > 8 | R | > 8 | R | > 8 | R | 4 (≈ 13.4 µM) | I | > 8 | R | > 8 | R | 2 (≈ 6.68 µM) | S | S | – | – | – | MIC (K. pneumoniae 311; Klebsiella pneumoniae, 311): 2 µg/mL (≈ 6.68 µM)
